Test results from patent US11884706B2, “Immunomodulating peptide derived from concave-eared torrent frog and use thereof” (priority 2019, dated 2024).

Assays:
neutrophils = experiment: Immunohistochemical count of neutrophils (anti-Ly6G) recruited to the wound; assay type: in vivo, mice; conditions: natural Ot-WHP dripped to wound; days 0.5 and 1 after operation; vs negative control
Experimental: (§1) The mice were treated according to the method in Example 3. The drugs in the negative control group and the natural Ot-WHP group were dripped to wounds of corresponding mice. At specified time point (0.5, 1, 2, 3 days) after the operation, the mice were sacrificed. A biopsy tissue containing the wound center was taken, immobilized with 10% formalin, then dehydrated by ethanol, washed with xylene, and finally embedded in paraffin. The paraffin block was cut into 5 μm slices, deparaffinized, and hydrated, and antigen retrieval was performed for immunohistochemical analysis. The slice was blocked with 5% BSA for non-specific sites, incubated with the primary antibody (anti-Ly6G for neutrophils, and anti-F4/80 for macrophages) at 4° C., and immunostained with horseradish peroxidase and DBA. The infiltration by neutrophils and macrophages was measured by statistically counting the immunostained anti-Ly6G and anti-F4/80 cells.
(§2) FIGS. 4A1-A4 show the immunohistochemical results of neutrophils recruited on days 0.5 and 1 after operation of mice in different groups. FIGS. 4C1-C4 show the immunohistochemical results of macrophages recruited on days 2 and 3 after operation of mice in different groups. FIGS. 4B1-B2 show the statistical results of neutrophils recruited on days 0.5 and 1 after operation of mice in different groups. […]

macrophages = experiment: Immunohistochemical count of macrophages (anti-F4/80) recruited to the wound; assay type: in vivo, mice; conditions: natural Ot-WHP dripped to wound; days 2 and 3 after operation; vs negative control
Experimental: as §1, §2

mouse neutrophils = experiment: Transwell migration, direct (peptide in lower chamber); assay type: cell-based; conditions: 25-100 μg/mL, 8 h, no macrophages in lower chamber
Experimental: To clarify how Ot-WHP chemoattracts neutrophils and macrophages to the wound area, the prepared mouse neutrophils or bone marrow-derived macrophages (BMDMs) were resuspended in RPMI 1640 medium containing 2% FBS at a cell density of 7×10^6 cells/mL. 100 μL was pipetted to a Transwell chamber with a pore size of 3.0 μm (upper chamber, 24-well plate). Then 500 μL of Ot-WHP (25, 50, 100 μg/mL, dissolved in RPMI 1640 medium containing 2% FBS) or the culture medium (control) was pipetted to the lower chamber, and then cultured in a cell incubator at 37° C. for 8 h. The cells in the lower chamber were collected and counted with a hemocytometer.

MAPKs (ERK, JNK subunit) = experiment: Activation of MAPKs signaling in BMDMs; assay type: cell-based, mouse; conditions: BMDMs, 0, 25, 50, 100 μg/mL, 30 min
Experimental: (§3) Mouse bone marrow-derived macrophages (BMDMs) were inoculated into a 6-well plate and cultured without serum for 16 h. For the detection of MAPKs and NF-κB, BMDMs were incubated with different concentrations of Ot-WHP (0, 25, 50, 100 μg/mL) for 30 min. For the detection of TGF-β/Smad signaling pathway, BMDMs were incubated with different concentrations of Ot-WHP (0, 25, 50, 100 μg/mL) for 24 h, or BMDMs were incubated with 100 μg/mL Ot-WHP, with or without TGF-β1 antibody.

[1] = test system: NF-κB (IκBα, p65 subunit); experiment: Activation of NF-κB signaling in BMDMs; assay type: cell-based, mouse; conditions: BMDMs, 0, 25, 50, 100 μg/mL, 30 min
Experimental: as §3

Smad (Smad2, Smad3) = experiment: Activation of TGF-β/Smad signaling in BMDMs; assay type: cell-based, mouse
Experimental: as §3

mouse fibroblasts = experiment: Fibroblast proliferation, direct (CCK-8); assay type: cell-based; conditions: mouse fibroblasts, 25, 50, 100 μg/mL, 72 h
Experimental: (§4) Keratinocytes HaCat and mouse fibroblasts (5×10^3 cells/well, 100 μL/well) were inoculated into a 96-well plate, and incubated with different concentrations of Ot-WHP (25, 50, and 100 μg/mL). PBS was used as a control. After HaCat was incubated with Ot-WHP for 24 h, and the fibroblasts were incubated with Ot-WHP for 72 h, 10 μl of Cell Counting Kit-8 (CCK-8) solution was added to each well, and incubated for another 2-4 h at 37° C. The absorbency at 450 nm was detected on a microplate reader.

α-SMA in fibroblasts [2] = experiment: α-SMA expression in fibroblasts by Western blot, direct; assay type: cell-based, mouse; conditions: fibroblasts alone, treated as in Example 8
Experimental: as §4
(§5) The method was the same as that in Example 8. The fibroblasts treated in Example 8 were lysed with RIPA cell lysis solution. The protein was extracted, and the expression of α-SMA was detected by Western blot. A higher expression level of α-SMA means a higher transformation of fibroblasts into […]. The supernatant of the fibroblasts treated in Example 8 was collected, and the production of collagen in the supernatant was quantitatively detected with an ELISA kit.

fibroblasts [3] = experiment: Collagen in fibroblast supernatant by ELISA, direct; assay type: cell-based, mouse; conditions: fibroblasts alone
Experimental: as §4, §5

α-SMA in fibroblasts [4] = experiment: α-SMA expression in fibroblasts by Western blot, co-incubation with macrophages; assay type: cell-based, mouse; conditions: fibroblasts co-incubated with macrophages
Experimental: (§6) HaCat was co-incubated with THP-1 derived macrophages, and mouse fibroblasts were co-incubated with mouse macrophages BMDMs. HaCat (1×10^5 cells/well) or mouse fibroblasts (1×10^5 cells/well) were inoculated into a 24-well plate (lower chamber) one day in advance. After adherence, corresponding macrophages (1×10^5 cells/well, 100 μL) and different concentrations of Ot-WHP (25, 50, 100 μg/mL) or Vehicle (PBS, control) were added to the co-incubation chamber (upper chamber). After HaCat was co-incubated with THP-1-derived macrophages for 24 h, and the fibroblasts were co-incubated with mouse macrophages BMDMs for 72 h, the co-incubated upper chamber was discarded, and the cell activity in the lower chamber was detected by CCK-8.
as §5

fibroblasts [5] = experiment: Collagen in fibroblast supernatant by ELISA, co-incubation with macrophages; assay type: cell-based, mouse; conditions: fibroblasts co-incubated with macrophages
Experimental: as §6, §5

In the case of “Ot-WHP: immunomodulating peptide of 24 amino acids from concave-eared torrent frog skin, sequence ATAWDLGPHGIRPLRPIRIRPLCG (SEQ ID NO:1); natural (purified) or chemically synthesized (Ot-WHP Peptide; listed as Odorrana tormota)”, the “migration of neutrophils to the wound” value (neutrophils) is reported as “promote the migration of neutrophils and macrophages to the wound”, the “migration of macrophages to the wound” value (macrophages) is reported as “promote the migration of neutrophils and macrophages to the wound” and the “migration of neutrophils, direct” value (mouse neutrophils) is reported as “does not directly cause the migration”. The “activation of MAPKs (ERK, JNK subunit) signaling pathway” value (MAPKs (ERK, JNK subunit)) was “activates”, the “activation of NF-κB (IκBα, p65 subunit) signaling pathway” value [1] was “activates” and the “activation of Smad (Smad2, Smad3) signaling pathway” value (Smad (Smad2, Smad3); BMDMs, 0, 25, 50, 100 μg/mL, 24 h) was “activates”. The “dependence of Smad activation on TGF-β” value (Smad (Smad2, Smad3); BMDMs, 100 μg/mL, with or without TGF-β1 antibody) was “dependent on the production of TGF-β induced by Ot-WHP”, the “proliferation of fibroblasts, direct” value (mouse fibroblasts) was “cannot directly promote the proliferation” and the “expression of α-SMA in fibroblasts (transformation into fibrocytes), direct” value (α-SMA in fibroblasts [2]) was “no direct effect on the expression of α-SMA in fibroblasts”. The “collagen production by fibroblasts, direct” value (fibroblasts [3]) was “no direct effect on the collagen production by fibroblasts”, the “expression of α-SMA by fibroblasts (transformation into fibrocytes) with coexisting macrophages” value (α-SMA in fibroblasts [4]) was “promote the expression of α-SMA by fibroblast” and the “collagen production by fibroblasts with coexisting macrophages” value (fibroblasts [5]) was “promote the collagen production by fibroblasts”.
